Experimental data taken from patent publication US20220372542A1, “DETECTION OF ANALYTES BY PROTEIN SWITCHES” (priority 2019, published 2022).

How the values were obtained:
[1] = biological target: T1, glucose dehydrogenase GDH-105 (control, backbone) (Bacillus subtilis, UniProt P12310, E198G/I165M/P194T); assay: warfarin inhibition of evolved GDH sensors (Table 13); type: biochemical; details: NAD+ 10 mM, glucose 5 mM, 33° C.
Experimental: (§1) Evolved Warfarin sensors. GDH-105, GDH-2016, GDH-2025, GDH-2026, GDH-2027, and GDH-2028 glucose-responsive active areas were prepared using a single-layer active area system. The GDH was obtained from Codexis, Redwood City, Calif. The active area (0.33 mm^2) was coated onto a carbon working electrode in a single layer composition (Table 8). Following deposition of the active area, the active area was cured for three days at room temperature.
(§2) Experimental procedure. Testing of the GDH-105, GDH-2016, GDH-2025, GDH-2026, GDH-2027, and GDH-2028 sensors was conducted by immersing the electrode in a 100 mM PBS buffer solution at 33° C. NAD^+(10 mM) supplied to a test beaker containing PBS buffer followed by the addition of glucose (5 mM).

[2] = biological target: glucose dehydrogenase protein switch GDH-2025 (Rd3bb), variant of GDH-2016, C96F, SEQ ID NO: 1 (Bacillus subtilis, UniProt P12310, A159T/E170K/E96F/F155A/I165M/P194T/Q252L/V156S); assay: as above; type: biochemical; details: NAD+ 10 mM, glucose 5 mM, 100 mM PBS, 33° C.
Experimental: as §1, §2

[3] = biological target: glucose dehydrogenase protein switch GDH-2028 (Rd4bb), variant of GDH-2025, C96F; L252V, SEQ ID NO: 15 (Bacillus subtilis, UniProt P12310, A159T/E170K/E96F/F155A/I165M/P194T/Q252V/V156S); assay: as above; type: biochemical; details: NAD+ 10 mM, glucose 5 mM, 100 mM PBS, 33° C.
Experimental: as §1, §2

[4] = biological target: glucose dehydrogenase protein switch GDH-2026, variant of GDH-2016, C96F; I141V, SEQ ID NO: 7 (Bacillus subtilis, UniProt P12310, A159T/E170K/E96F/F155A/I141V/I165M/P194T/Q252L/V156S); assay: as above; type: biochemical; details: NAD+ 10 mM, glucose 5 mM, 100 mM PBS, 33° C.
Experimental: as §1, §2

[5] = biological target: glucose dehydrogenase protein switch GDH-2027, variant of GDH-2025, C96F; A173G, SEQ ID NO: 12 (Bacillus subtilis, UniProt P12310, A159T/A173G/E170K/E96F/F155A/I165M/P194T/Q252L/V156S); assay: as above; type: biochemical; details: NAD+ 10 mM, glucose 5 mM, 100 mM PBS, 33° C.
Experimental: as §1, §2

[6] = biological target: T2, glucose dehydrogenase protein switch GDH-2016 (Rd2bb), GDH-105 variant, SEQ ID NO: 11 (Bacillus subtilis, UniProt P12310, A159T/E170K/E96C/F155A/I165M/P194T/Q252L/V156S); assay: biochemical; details: read-out: inhibition at 300 uM warfarin
T2 construct: electrode sensor and screen
Experimental: as §1, with “Experimental GDH-105” for “Evolved Warfarin sensors. GDH-105, GDH-2016, GDH-2025, GDH-2026, GDH-2027,”, “GDH-2016” for “GDH-2028”, “area” for “area (0.33 mm^2)”, “RT.” for “room temperature.”
(§3) Experimental procedure. Testing of the GDH-105 and GDH-2016 sensors was conducted by immersing the electrode in a 100 mM PBS buffer solution at 33° C. NAD^+ (5 mM) supplied to a test beaker containing PBS buffer followed by the addition of glucose (1 mM).

[7] = biological target: glucose dehydrogenase protein switch GDH-2009, GDH-105 variant (Bacillus subtilis, UniProt P12310); assay: screen of GDH variants for glucose activity against analytes; type: biochemical
Experimental: (§4) Glucose dehydrogenase (GDH) variant libraries comprising GDH polypeptides developed using GDH-105 (Codexis, Redwood, Calif.) as a backbone were prepared. Approximately 2800 GDH variants were prepared. Glucose activity was determined by either NADH kinetic assay using a spectrophotometer set at UV 340 or UV 360 at various time intervals or by endpoint measurement of gluconic acid using RapidFire mass spectrometer.

[8] = biological target: glucose dehydrogenase protein switch GDH-2013, GDH-105 variant (Bacillus subtilis, UniProt P12310); assay: as above; type: biochemical; details: warfarin 2.08 mM, pH 7.0, NADH kinetics at UV360
Experimental: as §4

[9] = biological target: glucose dehydrogenase protein switch GDH-2004, GDH-105 variant (Bacillus subtilis, UniProt P12310); assay: as above; type: biochemical
Experimental: as §4

[10] = biological target: T1, glucose dehydrogenase GDH-105 (control, backbone); assay: warfarin inhibition of GDH sensor (FIGS. 9A and 9B); type: biochemical; details: 10, 30, 80, 180, and 300 uM warfarin; NAD+ 5 mM, glucose 1 mM, 33° C.
Experimental: Warfarin Sensor. Experimental GDH-105 and GDH-2016 glucose-responsive active areas were prepared using a single-layer active area system. The GDH was obtained from Codexis, Redwood City, Calif. The active area was coated onto a carbon working electrode in a single layer composition (Table 8). Following deposition of the active area, the active area was cured for three days at RT.
as §3

[11] = biological target: T2, glucose dehydrogenase protein switch GDH-2016 (Rd2bb), GDH-105 variant, SEQ ID NO: 11; type: biochemical; details: warfarin 2.08 mM, pH 7.0, NADH kinetics at UV360
Experimental: as §4

[12] = biological target: glucose dehydrogenase protein switch GDH-2005, GDH-105 variant (Bacillus subtilis, UniProt P12310); assay: screen of GDH variants for glucose activity against analytes; type: biochemical; details: cortisol 2.08 mM, pH 7.5, NADH kinetics at UV340
Experimental: as §4

[13] = biological target: glucose dehydrogenase protein switch GDH-2008, GDH-105 variant (Bacillus subtilis, UniProt P12310); assay: as above; type: biochemical; details: methotrexate 5.42 mM, pH 7.0, gluconic acid by RapidFire MS
Experimental: as §4

[14] = biological target: glucose dehydrogenase protein switch GDH-2010, GDH-105 variant (Bacillus subtilis, UniProt P12310); assay: as above; type: biochemical; details: methotrexate 5.42 mM, pH 7.0, gluconic acid by RapidFire MS
Experimental: as §4

[15] = biological target: glucose dehydrogenase protein switch GDH-2007, GDH-105 variant (Bacillus subtilis, UniProt P12310); assay: as above; type: biochemical; details: methotrexate 5.42 mM, pH 7.0, gluconic acid by RapidFire MS
Experimental: as §4

[16] = warfarin 2.08 mM, pH 7.0, NADH kinetics at UV360
[17] = methotrexate 5.42 mM, pH 7.0, gluconic acid by RapidFire MS

`CC(=O)CC(c1ccccc1)c1c(O)c2ccccc2oc1=O` (stereo not shown) [Warfarin, warfarin] was tested, and the “GDH inhibition at 0.3 mM WF” value ([1]; 0.3 mM WF, 100 mM PBS) was 5%, the “inhibition to increasing warfarin concentrations” value ([1]; 10, 30, 80, 180, and 300 uM warfarin) was “remained unaffected” and the “GDH inhibition at 0.3 mM WF” value [2] was 79%. For the same molecule, the “GDH inhibition at 0.3 mM WF” value [3] was 84%, the “GDH inhibition at 0.3 mM WF” value [4] was 78% and the “GDH inhibition at 0.3 mM WF” value [5] was 79%. For the same molecule, the inhibition at 300 µM [6] was roughly 55%, the “Activate/Inhibit (glucose activity)” value [7, 16] was “Inhibit” and the “Activate/Inhibit (glucose activity)” value [8] was “Inhibit”. For the same molecule, the “Activate/Inhibit (glucose activity)” value [9, 16] was “Inhibit”, the “inhibition of the sensor to increasing warfarin concentrations” value [10] was “not affected” and the “Activate/Inhibit (glucose activity)” value [11] was “Inhibit”.
In the case of `C[C@]12CCC(=O)C=C1CC[C@@H]1[C@@H]2[C@@H](O)C[C@@]2(C)[C@H]1CC[C@]2(O)C(=O)CO` [Cortisol], the “Activate/Inhibit (glucose activity)” value [12] is reported as “Inhibit” and the “Activate/Inhibit (glucose activity)” value ([9]; cortisol 2.08 mM, pH 7.5, NADH kinetics at UV340) is reported as “Inhibit”.
In the case of `CN(Cc1cnc2nc(N)nc(N)c2n1)c1ccc(C(=O)N[C@@H](CCC(=O)O)C(=O)O)cc1` [Methotrexate], the “Activate/Inhibit (glucose activity)” value [13] is reported as “Inhibit”, the “Activate/Inhibit (glucose activity)” value [7, 17] is reported as “Inhibit” and the “Activate/Inhibit (glucose activity)” value [14] is reported as “Inhibit”. For the same molecule, the “Activate/Inhibit (glucose activity)” value [15] was “Inhibit” and the “Activate/Inhibit (glucose activity)” value [9, 17] was “Inhibit”.
